From patent publication US20220408731A1, “MODIFIED ANTIMICROBIAL PEPTIDES” (priority 2021, published 2022)
Values after ≈ are worked out from the molar mass of the structure shown. Bridge positions count the residues as written; N and C are the ends. Peptide text beside a SMILES is read from it.

Assays:
B. cinerea = experiment: Drop inoculation assay on detached Nicotiana benthamiana leaves (semi-in planta); format: in vivo, Botrytis cinerea; conditions: 48 h; for Reduction of gray mold disease symptoms: detached N. benthamiana leaves, no single concentration stated
Alternaria alternata = conditions: unit from method, none in Table 19
Cercospora sojina = conditions: unit from method, none in Table 19
[1] = test system: Colletotrichum gloeosporioides; conditions: unit from method, none in Table 19

| SMILES | Reduction of gray mold disease symptoms (B. cinerea) | MIC (μM) (SFM + 2 mM CaCl2) (Botrytis cinerea) [µM] | MIC (μM) (SFM + 100 mM KCl) (Botrytis cinerea) [µM] | MIC (μM) (SFM + 100 mM NaCl) (Botrytis cinerea) [µM] | MIC (μM) SFM (Botrytis cinerea) [µM] | MIC, Alternaria alternata (Alternaria alternata) [µM] | MIC, Cercospora sojina (Cercospora sojina) [µM] | MIC, Colletotrichum gloeosporioides [1] [µM] | Gray mold symptoms, drop inoculation assay (B. cinerea; peptide at 1.5 μM and 3 μM) | Gray mold symptoms, drop inoculation assay (B. cinerea; peptide at 6 μM) |
| --- | --- | --- | --- | --- | --- | --- | --- | --- | --- | --- |
| CC[C@H](C)[C@@H]1NC(=O)[C@H](CCCNC(=N)N)NC(=O)[C@H]([C@@H](C)O)NC(=O)[C@H](Cc2ccccc2)NC(=O)[C@H](Cc2c[nH]c3ccccc23)NC(=O)[C@H](Cc2ccccc2)NC(=O)[C@H](CCCNC(=N)N)NC(=O)[C@H](CCCNC(=N)N)NC(=O)[C@H](CC(C)C)NC(=O)[C@H](Cc2ccccc2)NC(=O)CNC(=O)[C@H](CCCCN)NC(=O)[C@@H](NC(=O)[C@H](CCCNC(=N)N)NC(=O)CNC(=O)CN)CSSC[C@@H](C(N)=O)NC1=O [GMA4C_V9] (H-GGRCKGFLRRFWFTRIC-NH2; disulfide 4-17; N-terminus assumed) | effective in reducing gray mold disease symptoms | 12 | 6 to 12 | 3 | 3 (≈ 6.3 µg/mL) | >12 | 6 (≈ 12.6 µg/mL) | >12 |  |  |
| CC[C@H](C)[C@@H]1NC(=O)[C@H](CCCNC(=N)N)NC(=O)[C@H]([C@@H](C)O)NC(=O)[C@H](Cc2c[nH]c3ccccc23)NC(=O)[C@H](Cc2ccc(O)cc2)NC(=O)[C@H](Cc2c[nH]c3ccccc23)NC(=O)[C@H](CCCNC(=N)N)NC(=O)[C@H](CCCNC(=N)N)NC(=O)[C@H](CCCNC(=N)N)NC(=O)[C@H](Cc2ccccc2)NC(=O)CNC(=O)[C@H](CCCCN)NC(=O)[C@@H](NC(=O)[C@H](CCCNC(=N)N)NC(=O)CNC(=O)CN)CSSC[C@@H](C(N)=O)NC1=O [GMA4C_V10] (H-GGRCKGFRRRWYWTRIC-NH2; disulfide 4-17; N-terminus assumed) | effective in reducing gray mold disease symptoms | 3 | 3 to 6 | 3 | 3 (≈ 6.6 µg/mL) | >12 | 6 (≈ 13.2 µg/mL) | >12 | more effective in reducing the symptoms of gray mold than GMA4C_V9 | completely abrogates gray mold symptoms |
| C[C@H](NC(=O)CN)C(=O)N[C@H]1CSSC[C@@H](C(N)=O)NC(=O)[C@H](CCCCN)NC(=O)[C@H](CCCCN)NC(=O)[C@H](Cc2ccc(O)cc2)NC(=O)[C@H](Cc2c[nH]c3ccccc23)NC(=O)[C@H](Cc2ccccc2)NC(=O)[C@H](Cc2c[nH]c3ccccc23)NC(=O)[C@H](C)NC(=O)[C@H](Cc2ccccc2)NC(=O)CNC(=O)[C@H](Cc2ccccc2)NC(=O)CNC(=O)[C@H](CCC(N)=O)NC(=O)[C@H](CCCNC(=N)N)NC(=O)[C@H](Cc2c[nH]cn2)NC1=O [GMA5CA_V3] (H-GACHRQGFGFAWFWYKKC-NH2; disulfide 3-18; N-terminus assumed) |  | >12 | >12 | >12 | 3 (≈ 6.57 µg/mL) | 3 (≈ 6.57 µg/mL) | 6 (≈ 13.1 µg/mL) | >12 |  |  |
| C[C@H](NC(=O)CN)C(=O)N[C@H]1CSSC[C@@H](C(N)=O)NC(=O)[C@H](CCCCN)NC(=O)[C@H](CCCCN)NC(=O)[C@H](Cc2ccc(O)cc2)NC(=O)[C@H](Cc2ccccc2)NC(=O)[C@H](Cc2ccccc2)NC(=O)[C@H](Cc2ccccc2)NC(=O)[C@H](C)NC(=O)[C@H](Cc2ccccc2)NC(=O)CNC(=O)[C@H](Cc2ccccc2)NC(=O)CNC(=O)[C@H](CCC(N)=O)NC(=O)[C@H](CCCNC(=N)N)NC(=O)[C@H](Cc2c[nH]cn2)NC1=O [GMA5CA_V4] (H-GACHRQGFGFAFFFYKKC-NH2; disulfide 3-18; N-terminus assumed) |  | >12 | >12 | >12 | 3 (≈ 6.33 µg/mL) | 3 (≈ 6.33 µg/mL) | 6 (≈ 12.7 µg/mL) | >12 |  |  |
